# Experimental data taken from PubChem BioAssay (NCI).
#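 Grown in 96-well plates, cells were treated for 48 hours with each compound at five concentrations. Insufficient inhibition: endpoint recorded as highest concentration tested. The concentration for full growth arrest is given as TGI.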
# Tests used:
# Assay in all cases: NCI-60 cell line screen, 48 h
# TK-10 renal = system: TK-10 renal
# HCT-15 colon = system: HCT-15 colon
# A549 NSCLC = system: A549 NSCLC
# HT29 colon = system: HT29 colon
# SW-620 colon = system: SW-620 colon
# NCI-H460 lung = system: NCI-H460 lung
# A498 renal = system: A498 renal
# NCI/ADR-RES ovarian = system: NCI/ADR-RES ovarian
# MALME-3M melanoma = system: MALME-3M melanoma
# BT-549 breast = system: BT-549 breast
# MCF7 breast = system: MCF7 breast
# OVCAR-8 ovarian = system: OVCAR-8 ovarian
# MDA-MB-231 breast = system: MDA-MB-231 breast
# SK-MEL-28 melanoma = system: SK-MEL-28 melanoma
# UACC-257 melanoma = system: UACC-257 melanoma
# RPMI-8226 leukemia = system: RPMI-8226 leukemia
# SF-539 CNS = system: SF-539 CNS
# PC-3 prostate = system: PC-3 prostate
# ACHN renal = system: ACHN renal
# COLO 205 colon = system: COLO 205 colon
# HL-60(TB) leukemia = system: HL-60(TB) leukemia
# DU-145 prostate = system: DU-145 prostate
# SNB-19 CNS = system: SNB-19 CNS
# HOP-62 NSCLC = system: HOP-62 NSCLC
# MDA-N = system: MDA-N
# SK-MEL-5 melanoma = system: SK-MEL-5 melanoma
# MDA-MB-435 = system: MDA-MB-435
# T-47D breast = system: T-47D breast
# HCT-116 colon = system: HCT-116 colon
# 786-0 renal = system: 786-0 renal
# NCI-H522 lung = system: NCI-H522 lung
# M14 melanoma = system: M14 melanoma
# NCI-H226 lung = system: NCI-H226 lung
# U251 CNS = system: U251 CNS
# IGROV1 ovarian = system: IGROV1 ovarian
# SR leukemia = system: SR leukemia
# KM12 colon = system: KM12 colon
# SN12C renal = system: SN12C renal
# NCI-H23 lung = system: NCI-H23 lung
# HOP-92 NSCLC = system: HOP-92 NSCLC
# OVCAR-3 ovarian = system: OVCAR-3 ovarian
# SNB-75 CNS = system: SNB-75 CNS
# CAKI-1 renal = system: CAKI-1 renal
# LOX IMVI melanoma = system: LOX IMVI melanoma
# SK-OV-3 ovarian = system: SK-OV-3 ovarian
# RXF 393 renal = system: RXF 393 renal
# SK-MEL-2 melanoma = system: SK-MEL-2 melanoma
# OVCAR-4 ovarian = system: OVCAR-4 ovarian
# HS 578T breast = system: HS 578T breast
# OVCAR-5 ovarian = system: OVCAR-5 ovarian
# SF-268 CNS = system: SF-268 CNS
# SF-295 CNS = system: SF-295 CNS
# UO-31 renal = system: UO-31 renal
# EKVX NSCLC = system: EKVX NSCLC
# K-562 leukemia = system: K-562 leukemia
# CCRF-CEM leukemia = system: CCRF-CEM leukemia
# MOLT-4 leukemia = system: MOLT-4 leukemia
smiles,measurement,setting,value
COC(=O)CCC(C)[C@H]1CCC2C3C(C[C@H](OC(C)=O)[C@@]21C)[C@@]1(C)CCC2(C[C@H]1C[C@H]3OC(C)=O)OOC1(CCCCCCC1)OO2 (some centres not stated),TGI,TK-10 renal,> 100 µM
same,TGI,HCT-15 colon,> 100 µM
same,TGI,A549 NSCLC,> 100 µM
same,TGI,HT29 colon,> 100 µM
same,TGI,SW-620 colon,> 100 µM
same,TGI,NCI-H460 lung,> 100 µM
same,TGI,A498 renal,> 100 µM
same,TGI,NCI/ADR-RES ovarian,> 100 µM
same,TGI,MALME-3M melanoma,> 100 µM
same,TGI,BT-549 breast,> 100 µM
same,TGI,MCF7 breast,> 100 µM
same,TGI,OVCAR-8 ovarian,> 100 µM
same,TGI,MDA-MB-231 breast,> 100 µM
same,TGI,SK-MEL-28 melanoma,> 100 µM
same,TGI,UACC-257 melanoma,> 100 µM
same,TGI,RPMI-8226 leukemia,6.21 µM
same,TGI,SF-539 CNS,> 100 µM
same,TGI,PC-3 prostate,> 100 µM
same,TGI,ACHN renal,> 100 µM
same,TGI,COLO 205 colon,> 100 µM
same,TGI,HL-60(TB) leukemia,> 100 µM
same,TGI,DU-145 prostate,> 100 µM
same,TGI,SNB-19 CNS,> 100 µM
same,TGI,HOP-62 NSCLC,52.7 µM
same,TGI,MDA-N,> 100 µM
same,TGI,SK-MEL-5 melanoma,> 100 µM
same,TGI,MDA-MB-435,> 100 µM
same,TGI,T-47D breast,> 100 µM
same,TGI,HCT-116 colon,> 100 µM
same,TGI,786-0 renal,> 100 µM
same,TGI,NCI-H522 lung,> 100 µM
same,TGI,M14 melanoma,> 100 µM
same,TGI,NCI-H226 lung,50 µM
same,TGI,U251 CNS,> 100 µM
same,TGI,IGROV1 ovarian,> 100 µM
same,TGI,SR leukemia,> 100 µM
same,TGI,KM12 colon,> 100 µM
same,TGI,SN12C renal,> 100 µM
same,TGI,NCI-H23 lung,> 100 µM
same,TGI,HOP-92 NSCLC,> 100 µM
same,TGI,OVCAR-3 ovarian,> 100 µM
same,TGI,SNB-75 CNS,> 100 µM
same,TGI,CAKI-1 renal,> 100 µM
same,TGI,LOX IMVI melanoma,> 100 µM
same,TGI,SK-OV-3 ovarian,> 100 µM
same,TGI,RXF 393 renal,> 100 µM
same,TGI,SK-MEL-2 melanoma,> 100 µM
same,TGI,OVCAR-4 ovarian,> 100 µM
same,TGI,HS 578T breast,> 100 µM
same,TGI,OVCAR-5 ovarian,> 100 µM
same,TGI,SF-268 CNS,> 100 µM
same,TGI,SF-295 CNS,> 100 µM
same,TGI,UO-31 renal,28.8 µM
same,TGI,EKVX NSCLC,> 100 µM
same,TGI,K-562 leukemia,> 100 µM
same,TGI,CCRF-CEM leukemia,> 100 µM
same,TGI,MOLT-4 leukemia,> 100 µM
